Test results from PubChem BioAssay (NCI).
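Following 48 hours of exposure in 96-well plates, responses at five concentrations were used to interpolate endpoints linearly. At the TGI there is no net growth.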

Tests used:
Assay in all cases: inhibition of tumour cell growth, NCI panel, 48 h
[1] = system: HL-60(TB) leukemia
[2] = system: SK-MEL-2 melanoma
[3] = system: K-562 leukemia
[4] = system: U251 CNS
[5] = system: OVCAR-4 ovarian
[6] = system: BT-549 breast
[7] = system: HCT-15 colon
[8] = system: RXF 393 renal
[9] = system: UO-31 renal
[10] = system: OVCAR-3 ovarian
[11] = system: M14 melanoma
[12] = system: SK-MEL-28 melanoma
[13] = system: UACC-62 melanoma
[14] = system: SK-MEL-5 melanoma
[15] = system: IGROV1 ovarian
[16] = system: MDA-MB-435
[17] = system: HCT-116 colon
[18] = system: SK-OV-3 ovarian
[19] = system: NCI/ADR-RES ovarian
[20] = system: SN12C renal
[21] = system: KM12 colon
[22] = system: HT29 colon
[23] = system: OVCAR-8 ovarian
[24] = system: SNB-75 CNS
[25] = system: NCI-H226 lung
[26] = system: A498 renal
[27] = system: MDA-MB-231 breast
[28] = system: LOX IMVI melanoma
[29] = system: OVCAR-5 ovarian
[30] = system: A549 NSCLC
[31] = system: HOP-92 NSCLC
[32] = system: SF-295 CNS
[33] = system: MOLT-4 leukemia
[34] = system: T-47D breast
[35] = system: NCI-H23 lung
[36] = system: HCC-2998 colon
[37] = system: SF-268 CNS
[38] = system: TK-10 renal
[39] = system: EKVX NSCLC
[40] = system: SW-620 colon
[41] = system: SNB-19 CNS
[42] = system: ACHN renal
[43] = system: DU-145 prostate
[44] = system: MALME-3M melanoma
[45] = system: HS 578T breast
[46] = system: SF-539 CNS
[47] = system: 786-0 renal
[48] = system: NCI-H522 lung
[49] = system: MCF7 breast
[50] = system: COLO 205 colon
[51] = system: UACC-257 melanoma
[52] = system: NCI-H460 lung
[53] = system: MDA-N
[54] = system: HOP-62 NSCLC
[55] = system: PC-3 prostate
[56] = system: RPMI-8226 leukemia
[57] = system: CAKI-1 renal
[58] = system: CCRF-CEM leukemia
[59] = system: SR leukemia

Measured: TGI

c1ccc(N=C2SC(c3ccccc3)(c3ccccc3)c3ccccc32)cc1
not listed: [59]
> 100 µM: all other assays above

Cc1cn(CCOCCOC(=O)NC(CCCN=C(N)N)C(=O)O)c(=O)[nH]c1=O (configuration not stated)
not listed: [14] | [23] | [44] | [48] | [57]
> 100 µM: all other assays above
